The results in this text go back to US20240415804A1, “METHOD OF TREATING PANCREATIC CANCER” (University of South Florida, priority 2022, published 2024).

SMILES strings stand for the structures.

One experiment has as its system miR-155. In words: miR-155 gene expression by RT-qPCR in UN-KC-6141 cells. The experiment is classed as cell-based, mouse. To be noted: API 40 μM, 24 h, vs DMSO vehicle. Here is the method:
MiR-155 is known to be overexpressed in different cancers, including PC^21, 23. The inventors first assessed whether apigenin could modulate the expression of miR-155 in PC cells. Murine PC cell lines Panc02 and UN-KC-6141 as well as the human PC cell line MiaPaCa-2 were treated with API (40 μM) or DMSO vehicle for 24 h and the expression of miR-155 was examined using RT-qPCR assay. […] Since API is known to inhibit the growth of cancer cells, including PC cells^39-43, 47-50, the same PC cell lines were treated with API (40 μM) or DMSO (vehicle) for 24 h and examined cell viability using MTT assay. […] Moreover, Panc02 and UN-KC-6141 cells were then treated with API at a dose dependent concentration (10, 20, 30, 40, 50 μM) and detected apoptosis using flow cytometry (Annexin V and PI).
miR-155 is implicated in the development of pancreatic tumors from pancreatic intraepithelial neoplasia (PanIN) lesions, and is overexpressed in PC^23. The inventors examined whether the depletion of miR-155 modulated PC viability. Murine and human PC cell lines were transfected with miR-155 inhibitor (i.e., MMU-MIR-155-5P/HSA-MIR-155-5P) and scrambled miRNA at a concentration of 100 nM for 24 h and cell viability determined using an MTT assay. The expression of miR-155 was examined using an RT-qPCR assay as well. […]
For orientation: Quantitative PCR measures a nucleic acid by following its amplification.

The subject of the next experiment is UN-KC-6141 cells. Nature of the experiment: Apoptosis by flow cytometry (Annexin V and PI), UN-KC-6141. The experiment is classed as cell-based, mouse. The note with it: API 10, 20, 30, 40, 50 μM, 24 h. Here is the method:
Panc02 and UN-KC-6141 cells were seeded in 6-well plates allowed to grow to 50-60% confluency. Cells were then treated with API at a dose-dependent concentration (10, 20, 30, 40, 50 μM) or DMSO (1%) as vehicle control and incubated for 24 h at 37° C. in a humidified atmosphere of 5% CO2. Cells were collected and stained with a FITC Annexin V Apoptosis Detection Kit I (BD Bioscience, San Jose, CA, USA) according to the manufacturer's instructions. Acquisition of samples was performed using a flow cytometer BD LSRII (BD Biosciences Immunocytometry Systems, San Jose, CA, USA). FlowJo v10.8 software (TreeStar Inc., Ashland, OR, USA) was used for data analysis.

For the compound `O=c1cc(-c2ccc(O)cc2)oc2cc(O)cc(O)c12` [API, 40,5,7-Trihydroxyflavone, 5,7-Dihydroxy-2-(4-hydroxyphenyl)-4-benzopyrone], the miR-155 gene expression entry with miR-155 is reported as “significantly suppressed”. Also, the “apoptosis (Annexin V and PI)” value with UN-KC-6141 cells is listed as “induces apoptosis”.
